Data from patent US8383626B2, “Nitric oxide donors for inducing neurogenesis” (Henry Ford Health System, priority 1999, dated 2013).

Test system: newly formed cells (BrdU) in the subventricular zone and the dentate gyrus
Experiment: BrdU-positive newly formed cells in rats after embolic MCA occlusion treated with DETANONO
Format: in vivo, rat
Method: A pharmacological method to promote neurogenesis in brain was developed. Male Wistar rats were subjected to middle cerebral artery (MCA) occlusion by means of intraarterial placement of a clot at the origin of the right MCA. Animals were administered (iv/ip) nitric oxide donor compounds (DETANONO) after induction of stroke, at 24 and 48 hours (Group 1), or at 24 hours followed by daily injection (ip) of NO donor compound (Group 2). BrdU, a thymidine analog which identifies the formation of new cells, was injected (ip) daily over a period of 14 days from the onset of ischemia. Identification of cell type was determined by labeling immunoreactivity of specific cell proteins. Thus, neurons were identified by expression of NeuN, MAP2 and the astrocytes formed by GFAP. Measurements of neurogenesis were performed within specific regions of brain, the subventricular zone and the dentate gyrus.

With NCCN(CCN)/[N+]([O-])=N/O [DETANONO, DETANONOate] the “BrdU cells in the granule cell layer” value (Group 1: treated at 24 and 48 hours after stroke, non-treated 37.3±3.6) was 89.5±12, the “numbers of BrdU positive cells, subventricular zone” value (Group 2: 24 h after stroke then daily ip, BrdU daily 14 days, untreated 1653±91.4) was 2748±326 and the “numbers of BrdU positive cells, dentate gyrus granule cell layer” value (Group 2: 24 h after stroke then daily ip, untreated 37.3±3.6) was 135±18.9. The “numbers of BrdU positive cells, dentate gyrus hilus” value (Group 2, untreated 10.1±2.4) was 43.8±10.2, the “numbers of BrdU positive cells, dentate gyrus (second pair of values, area not named)” value (Group 2, untreated 34.9±2.8) was 53.7±6.3 and the “newly formed cells within the dentate gyrus that were neurons” value (ischemic rats) was over 90%. The “newly formed cells within the hippocampus of neuronal phenotype” value (rats treated with DETANONO and subjected to strokes, estimated) was “more than 90%”.
